Data taken from US12492173B2, “Herbicidal substituted N-tetrazolyl aryl carboxamides” (Bayer Aktiengesellschaft, priority 2019, dated 2025).

Tests used:
Type in all cases: in vivo
Polygonum convolvulus = assay: Post-emergence herbicidal action, POLCO
How it was run: (§1)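 After sowing into sandy loam, plants grew 2 to 3 weeks under greenhouse conditions until one leaf, then got a spray of compound as aqueous suspension or emulsion. Roughly three weeks on, activity was estimated visually against untreated pots.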

Echinochloa crus-galli = assay: Post-emergence herbicidal action, ECHCG; design: key: % herbicidal action vs untreated; 100 = plants died, 0 = like control; conditions: for Herbicidal action against ECHCG: comparative experiment
How it was run: as §1

Avena fatua = assay: Post-emergence herbicidal action, AVEFA; design: key: % herbicidal action vs untreated; 100 = plants died, 0 = like control
How it was run: as §1

Matricaria inodora = assay: Pre-emergence herbicidal action, MATIN; design: key to Herbicidal action against MATIN: % activity: 100 = plants have died, 0 = like control plants; conditions: for herbicidal activity MATIN: scored visually after 3 weeks vs untreated controls (100% = plants have died)
How it was run: (§2)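 Herbicidal activity is expressed in percent, scored by eye after a 3-week greenhouse period, with 0% matching untreated plants and 100% meaning death. Compounds, as wettable powders or emulsion concentrates, are applied pre-emergence to the covering soil.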

Abutilon theophrasti [1] = assay: Post-emergence herbicidal action, ABUTH; design: key: % herbicidal action vs untreated; 100 = plants died, 0 = like control; conditions: for Herbicidal action against ABUTH: comparative experiment
How it was run: as §1

Abutilon theophrasti [2] = assay: Pre-emergence herbicidal action, ABUTH; design: key to Herbicidal action against ABUTH: % activity: 100 = plants have died, 0 = like control plants; conditions: for herbicidal activity ABUTH: scored visually after 3 weeks vs untreated controls (100% = plants have died); for Herbicidal action against ABUTH: comparative experiment
How it was run: as §2

[3] = post-emergence, 20 g of a.i./ha
[4] = comparative experiment, post-emergence, 5 g of a.i./ha

| SMILES | herbicidal action POLCO (Polygonum convolvulus; Dosage 80 g/ha) | herbicidal action ECHCG (Echinochloa crus-galli; Dosage 80 g/ha) | herbicidal action AVEFA (Avena fatua; Dosage 80 g/ha) | herbicidal activity MATIN (Matricaria inodora; dosage 320 g/ha) [%] | herbicidal action ABUTH (Abutilon theophrasti [1]; Dosage 80 g/ha) | herbicidal activity ABUTH (Abutilon theophrasti [2]; dosage 320 g/ha) [%] | herbicidal action POLCO (Polygonum convolvulus; post-emergence, dosage 80 g/ha) [%] | herbicidal action ECHCG (Echinochloa crus-galli; post-emergence, dosage 80 g/ha) [%] | herbicidal action AVEFA (Avena fatua; post-emergence, dosage 80 g/ha) [%] | herbicidal action ABUTH (Abutilon theophrasti [1]; post-emergence, dosage 80 g/ha) [%] | other results |
| --- | --- | --- | --- | --- | --- | --- | --- | --- | --- | --- | --- |
| COCC[S+]([O-])Cc1c(C(F)(F)F)ccc(C(=O)Nc2nnnn2C)c1Cl (racemic) [Example 1-306] | 90 | 90 | 80 | 100 | 90 | 100 |  |  |  |  |  |
| Cn1nnnc1NC(=O)c1ccc(C(F)(F)F)c(C[S+]([O-])CC(F)(F)F)c1Cl (racemic) [Example 1-312] |  |  |  | 100 |  | 100 | 100 | 100 | 90 | 100 |  |
| CC[S+]([O-])Cc1c(C(F)(F)F)ccc(C(=O)Nc2nnnn2C)c1Br (racemic) [Example 1-384] |  |  |  | 100 |  | 100 | 90 | 100 | 100 | 100 | Herbicidal action against ECHCG (Echinochloa crus-galli; [3]): 90; Herbicidal action against ABUTH (Abutilon theophrasti [1]; [3]): 90; Herbicidal action against ABUTH (Abutilon theophrasti [2]; 80 g of a.i./ha): 100 |
| CSCc1c(C(F)(F)F)ccc(C(=O)Nc2nnnn2C)c1C [Example 1-83] |  |  |  | 100 |  | 100 | 90 | 90 | 90 | 90 |  |
| CCS(=O)(=O)Cc1c(C(F)(F)F)ccc(C(=O)Nc2nnnn2C)c1C [Example 1-88] | 90 | 90 | 80 |  | 80 |  |  |  |  |  | herbicidal action MATIN (Matricaria inodora; dosage 320 g/ha): 100%; herbicidal action ABUTH (Abutilon theophrasti [2]; dosage 320 g/ha): 100% |
| CSc1c(C(=O)Nc2nnnn2C)ccc(C(F)(F)F)c1C[S+](C)[O-] (centres unmarked) [Example 1-162] |  |  |  | 100 |  | 100 | 90 | 100 | 100 | 100 | Herbicidal action against ABUTH (Abutilon theophrasti [2]; 20 g of a.i./ha): 100 |
| CCSCc1c(C(F)(F)F)ccc(C(=O)Nc2nnnn2C)c1Cl [Example 1-299] |  |  |  | 100 |  | 100 | 80 | 90 | 90 | 100 | Herbicidal action against POLCO (Polygonum convolvulus; [4]): 60; Herbicidal action against AVEFA (Avena fatua; [4]): 80; Herbicidal action against MATIN (Matricaria inodora; comparative experiment, 20 g of a.i./ha): 90; Herbicidal action against ABUTH (Abutilon theophrasti [2]; 20 g of a.i./ha): 90 |
| Cn1nnnc1NC(=O)c1ccc(C(F)(F)F)c(CSC2CC2)c1Cl [Example 1-302] |  |  |  | 100 |  | 100 | 100 | 100 | 100 | 100 |  |
| Cn1nnnc1NC(=O)c1ccc(C(F)(F)F)c(CS(=O)(=O)C2CC2)c1Cl [Example 1-304] |  |  |  | 100 |  | 100 | 100 | 100 | 100 | 100 |  |
| COCCSCc1c(C(F)(F)F)ccc(C(=O)Nc2nnnn2C)c1Cl [Example 1-305] |  |  |  | 100 |  | 100 | 100 | 100 | 100 | 100 |  |
| Cn1nnnc1NC(=O)c1ccc(C(F)(F)F)c(CSCC2CC2)c1Cl [Example 1-314] |  |  |  | 100 |  | 100 | 100 | 100 | 100 | 100 |  |
| Cn1nnnc1NC(=O)c1ccc(C(F)(F)F)c(CS(=O)(=O)CC2CC2)c1Cl [Example 1-316] | 100 | 100 | 100 | 100 | 100 | 100 |  |  |  |  |  |
| CSCc1c(C(F)F)ccc(C(=O)Nc2nnnn2C)c1Cl [Example 1-320] | 80 | 100 | 100 | 100 | 100 | 100 |  |  |  |  | Herbicidal action against ECHCG (Echinochloa crus-galli; post-emergence, 5 g of a.i./ha): 100; Herbicidal action against ABUTH (Abutilon theophrasti [1]; post-emergence, 5 g of a.i./ha): 100; Herbicidal action against ABUTH (Abutilon theophrasti [2]; 20 g of a.i./ha): 90 |
